# Measurements taken from patent US20240182445A1 (ONO PHARMACEUTICAL CO., LTD., priority 2019, published 2024).
# Target: T1, human TREK-1 (Homo sapiens, UniProt O95069)
# T1 construct: expressed in transfected cells
# T1 sequence (O95069 1-426): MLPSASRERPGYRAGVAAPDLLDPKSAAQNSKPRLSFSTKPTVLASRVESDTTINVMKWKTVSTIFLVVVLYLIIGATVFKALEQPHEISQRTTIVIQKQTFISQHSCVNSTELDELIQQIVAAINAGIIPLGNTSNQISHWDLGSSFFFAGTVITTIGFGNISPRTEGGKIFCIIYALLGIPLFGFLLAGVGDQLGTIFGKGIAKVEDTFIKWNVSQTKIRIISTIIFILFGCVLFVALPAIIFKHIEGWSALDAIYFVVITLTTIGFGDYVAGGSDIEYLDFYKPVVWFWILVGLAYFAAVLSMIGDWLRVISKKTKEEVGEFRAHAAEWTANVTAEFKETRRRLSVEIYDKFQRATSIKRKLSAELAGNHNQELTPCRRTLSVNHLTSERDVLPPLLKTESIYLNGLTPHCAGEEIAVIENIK
# Assay: TREK-1 Thallium (Tl+) flux assay, Method 1
# Format: cell-based
# Conditions: TREK-1 Thallium (Tl+) flux assay, Method 1
# Method in brief: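 CHO-K1 cells stably expressing human TREK-1, loaded with Thallos dye, received compound or 0.3% DMSO vehicle for 10 min before thallium stimulus buffer. ΔRatio is fluorescence at 25 s after thallium addition over mean pre-addition fluorescence; % inhibition calculated from it.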
row,IC50 [nM],Compound
1,5050,"COc1ncc(-c2cnc(NC(=O)c3c(Cl)cnn3C3CCN(C(C)=O)CC3)c(C)c2)cc1Cl [Compound 425, 1-(1-acetylpiperidin-4-yl)-4-chloro-N-(5′-chloro-6′-methoxy-5-methyl-[3,3′-bipyridin]-6-yl)-1H-pyrazole-5-carboxamide]"

# Same assay, conditions: TREK-1 Thallium (Tl+) flux assay; no *^12 (Method 2) mark on these rows
row,IC50 [nM],Compound
1,710,"Cc1cc(C#Cc2ccccc2)cnc1NC(=O)c1c(Cl)cnn1C1CCN(C(=O)OC(C)(C)C)C[C@H]1F (stereo in doubt) [Compound 336, tert-butyl (3R,4R)-4-(4-chloro-5-((3-methyl-5-(phenylethynyl)pyridin-2-yl)carbamoyl)-1H-pyrazol-1-yl)-3-fluoropiperidine-1-carboxylate]"
2,750,"Cc1cc(C#Cc2ccc(F)cc2)cnc1NC(=O)c1c(Cl)nn(C)c1-c1ccc2c(cnn2C)c1 [Compound 342, 3-chloro-N-(5-((4-fluorophenyl)ethynyl)-3-methylpyridin-2-yl)-1-methyl-5-(1-methyl-1H-indazol-5-yl)-1H-pyrazole-4-carboxamide]"
3,420,"CC(=O)N1CCC(Cn2ncc(Cl)c2C(=O)Nc2ncc(C#Cc3ccc(F)cc3)cc2C)CC1 [Compound 256, 1-((1-acetylpiperidin-4-yl)methyl)-4-chloro-N-(5-((4-fluorophenyl)ethynyl)-3-methylpyridin-2-yl)-1H-pyrazole-5-carboxamide]"
4,460,"Cc1cc(C#Cc2ccc(F)cc2)cnc1NC(=O)c1c(Cl)cnn1CC1CCCN(C(=O)C(C)C)C1 (stereo not shown) [Compound 272, 4-chloro-N-(5-((4-fluorophenyl)ethynyl)-3-methylpyridin-2-yl)-1-((1-isobutyrylpiperidin-3-yl)methyl)-1H-pyrazole-5-carboxamide]"
5,530,"CC(C)(C)OC(=O)N[C@H]1CC[C@@H](n2ncc(Cl)c2C(=O)Nc2ncc(C#Cc3ccccc3)cc2F)CC1 [Compound 294, tert-butyl (cis-4-(4-chloro-5-((3-fluoro-5-(phenylethynyl)pyridin-2-yl)carbamoyl)-1H-pyrazol-1-yl)cyclohexyl)carbamate]"
6,430,"CC(=O)N1CCC[C@H](Cn2ncc(Cl)c2C(=O)Nc2ncc(C#Cc3ccccc3)cc2F)C1 [Compound 262, (S)-1-((1-acetylpiperidin-3-yl)methyl)-4-chloro-N-(3-fluoro-5-(phenylethynyl)pyridin-2-yl)-1H-pyrazole-5-carboxamide]"
7,360,"O=C(Nc1ncc(C#Cc2ccc(F)cc2)cc1F)c1c(Cl)cnn1[C@@H]1CCN(C(=O)C2COCCO2)C[C@H]1F (stereo partly drawn) [Compound 235, 1-((3R,4R)-1-(1,4-dioxane-2-carbonyl)-3-fluoropiperidin-4-yl)-4-chloro-N-(3-fluoro-5-((4-fluorophenyl)ethynyl)pyridin-2-yl)-1H-pyrazole-5-carboxamide]"
8,730,"Cc1cc(C#Cc2ccccc2)cnc1NC(=O)c1c(Cl)cnn1C[C@@H]1COCCO1 [Compound 338, (R)-1-((1,4-dioxan-2-yl)methyl)-4-chloro-N-(3-methyl-5-(phenylethynyl)pyridin-2-yl)-1H-pyrazole-5-carboxamide]"
9,330,"CC(C)(C)OC(=O)N[C@H]1C[C@H](n2ncc(Cl)c2C(=O)Nc2ncc(C#Cc3ccccc3)cc2F)C1 [Compound 214, tert-butyl (trans-3-(4-chloro-5-((3-fluoro-5-(phenylethynyl)pyridin-2-yl)carbamoyl)-1H-pyrazol-1-yl)cyclobutyl)carbamate]"
10,540,"CC(C)(C)OC(=O)N1CCOC(Cn2ncc(Cl)c2C(=O)Nc2ncc(C#Cc3ccccc3)cc2F)C1 (stereo not shown) [Compound 300, tert-butyl 2-((4-chloro-5-((3-fluoro-5-(phenylethynyl)pyridin-2-yl)carbamoyl)-1H-pyrazol-1-yl)methyl)morpholine-4-carboxylate]"
11,510,"Cc1cc(C#Cc2ccccc2)cnc1NC(=O)c1c(Cl)cnn1C1CCC(C#N)C1 (stereo not shown) [Compound 289, 4-chloro-1-(3-cyanocyclopentyl)-N-(3-methyl-5-(phenylethynyl)pyridin-2-yl)-1H-pyrazole-5-carboxamide]"
12,350,"CC(=O)N1CCC(F)(Cn2ncc(Cl)c2C(=O)Nc2ncc(C#Cc3ccccc3)cc2F)CC1 [Compound 228, 1-((1-acetyl-4-fluoropiperidin-4-yl)methyl)-4-chloro-N-(3-fluoro-5-(phenylethynyl)pyridin-2-yl)-1H-pyrazole-5-carboxamide]"
13,310,"Cc1cc(C#Cc2ccc(F)cc2)cnc1NC(=O)c1c(Cl)cnn1[C@H]1C[C@H](NC(=O)C(C)C)C1 [Compound 209, 4-chloro-N-(5-((4-fluorophenyl)ethynyl)-3-methylpyridin-2-yl)-1-(trans-3-isobutyramidocyclobutyl)-1H-pyrazole-5-carboxamide]"
14,420,"Cc1cc(C#Cc2ccccc2)cnc1NC(=O)c1c(Cl)cnn1C1CC(C#N)C1 (stereo not shown) [Compound 254, 4-chloro-1-(3-cyanocyclobutyl)-N-(3-methyl-5-(phenylethynyl)pyridin-2-yl)-1H-pyrazole-5-carboxamide]"
15,330,"CC(C)C(=O)N1CCC(Cn2ncc(Cl)c2C(=O)Nc2ncc(C#Cc3ccccc3)cc2F)C(F)(F)C1 (stereo not shown) [Compound 216, 4-chloro-1-((3,3-difluoro-1-isobutyrylpiperidin-4-yl)methyl)-N-(3-fluoro-5-(phenylethynyl)pyridin-2-yl)-1H-pyrazole-5-carboxamide]"

# Same assay, conditions: TREK-1 Thallium (Tl+) flux assay; values without footnote *12 are Method 1
row,IC50 [nM],Compound
1,160,"CC(C1CCN(C(=O)OC(C)(C)C)CC1)n1ncc(Cl)c1C(=O)Nc1ncc(C#Cc2ccccc2)cc1F (stereo not shown) [Compound 78, tert-butyl 4-(1-(4-chloro-5-((3-fluoro-5-(phenylethynyl)pyridin-2-yl)carbamoyl)-1H-pyrazol-1-yl)ethyl)piperidine-1-carboxylate]"
2,290,"CC(C)C(=O)N1CCC(F)(Cn2ncc(Cl)c2C(=O)Nc2ncc(C#Cc3ccccc3)cc2F)CC1 [Compound 190, 4-chloro-1-((4-fluoro-1-isobutyrylpiperidin-4-yl)methyl)-N-(3-fluoro-5-(phenylethynyl)pyridin-2-yl)-1H-pyrazole-5-carboxamide]"
3,290,"CC(=O)N[C@H]1CC[C@H](n2ncc(Cl)c2C(=O)Nc2ncc(C#Cc3ccc(F)cc3)cc2C)CC1 [Compound 193, 1-(trans-4-acetamidocyclohexyl)-4-chloro-N-(5-((4-fluorophenyl)ethynyl)-3-methylpyridin-2-yl)-1H-pyrazole-5-carboxamide]"
4,190,"CC(=O)N1CCC(CCn2ncc(Cl)c2C(=O)Nc2ncc(C#Cc3ccccc3)cc2F)CC1 [Compound 102, 1-(2-(1-acetylpiperidin-4-yl)ethyl)-4-chloro-N-(3-fluoro-5-(phenylethynyl)pyridin-2-yl)-1H-pyrazole-5-carboxamide]"
5,180,"CC(=O)N1CCC(Cn2ncc(Cl)c2C(=O)Nc2ncc(C#Cc3ccccc3)cc2C)C(F)(F)C1 (stereo not shown) [Compound 98, 1-((1-acetyl-3,3-difluoropiperidin-4-yl)methyl)-4-chloro-N-(3-methyl-5-(phenylethynyl)pyridin-2-yl)-1H-pyrazole-5-carboxamide]"
6,240,"O=C(Nc1ncc(C#Cc2ccccc2)cc1F)c1c(Cl)cnn1C[C@@H]1CCOC1 [Compound 148, (S)-4-chloro-N-(3-fluoro-5-(phenylethynyl)pyridin-2-yl)-1-((tetrahydrofuran-3-yl)methyl)-1H-pyrazole-5-carboxamide]"
7,230,"CC(C)C(=O)N1CC[C@@H](Cn2ncc(Cl)c2C(=O)Nc2ncc(C#Cc3ccccc3)cc2F)[C@@H](F)C1 [Compound 146, 4-chloro-1-(((3R,4S)-3-fluoro-1-isobutyrylpiperidin-4-yl)methyl)-N-(3-fluoro-5-(phenylethynyl)pyridin-2-yl)-1H-pyrazole-5-carboxamide]"
8,180,"CCNC(=O)N1CCC(n2ncc(Cl)c2C(=O)Nc2ncc(C#Cc3ccc(F)cc3)cc2C)CC1 [Compound 92, 4-(4-chloro-5-((5-((4-fluorophenyl)ethynyl)-3-methylpyridin-2-yl)carbamoyl)-1H-pyrazol-1-yl)-N-ethylpiperidine-1-carboxamide]"
9,210,"CC(=O)N1CCC(n2ncc(Cl)c2C(=O)Nc2ncc(C#Cc3ccccc3)cc2F)C1 (stereo not shown) [Compound 121, 1-(1-acetylpyrrolidin-3-yl)-4-chloro-N-(3-fluoro-5-(phenylethynyl)pyridin-2-yl)-1H-pyrazole-5-carboxamide]"
10,130,"CC(C)C(=O)N[C@H]1CC[C@@H](n2ncc(Cl)c2C(=O)Nc2ncc(C#Cc3ccc(F)cc3)cc2F)CC1 [Compound 45, 4-chloro-N-(3-fluoro-5-((4-fluorophenyl)ethynyl)pyridin-2-yl)-1-(cis-4-isobutyramidocyclohexyl)-1H-pyrazole-5-carboxamide]"
11,160,"Cc1cc(C#Cc2ccccc2)cnc1NC(=O)c1c(Cl)cnn1C1CN(C(=O)C2COCCO2)C1 (stereo not shown) [Compound 81, 1-(1-(1,4-dioxane-2-carbonyl)azetidin-3-yl)-4-chloro-N-(3-methyl-5-(phenylethynyl)pyridin-2-yl)-1H-pyrazole-5-carboxamide]"

# Same assay, conditions: read-out: Tl^+ Assay % inhibition at 30 uM (Minus value indicates activation of TREK-1); at 30 uM; CHO-K1 cells stably expressing human TREK-1; minus = activation
row,inhibition at 30 µM [%],Compound
1,-135,"CC(=O)N1CCC(CCn2cc(Cl)c(C(=O)Nc3ncc(C#Cc4cccs4)cc3C)n2)CC1 [Compound 440, 1-(2-(1-actetylpiperidin-4-yl)ethyl)-4-chloro-N-(3-methyl-5-(thiophen-2-ylethynyl)pyridin-2-yl)-1H-pyrazole-3-carboxamide]"
